Tests used:
[1] = ZMP concentration in muscle after AICAR injection; type: in vivo, rat; conditions: for ZMP concentration: one hour after AICAR injection in rats given daily injections for 4 weeks
Procedure: Resuspended ammonium sulfate precipitates of tissue homogenates were analyzed for AMPK activity and acetyl-CoA carboxylase activity as described previously. Li, B., et al. J. Biol. Chem. 274:17534-17540, 1999; Winder, W. W., & D. G. Hardie Am. J. Physiol. 270:E299-E304, 1996. […] ACC activity at 0.2 mM citrate provides some indication of the in vivo activity of AMPK, since ACC is a target for phosphorylation of AMPK. ACC activity has previously been reported to decrease in response to phosphorylation by AMPK. Winder, W. W., & D. G. Hardie Am. J. Physiol. 270:E299-E304, 1996. The acute experiment was also repeated on rats treated with AICAR or saline for 4 weeks to see if the responses of AMPK and ACC to AICAR persisted for the entire treatment period. In both experiments ATP and CP were measured on neutralized perchloric acid extracts of muscle.
After obtaining results on blunted acute response to an AICAR injection on AMPK in chronically treated rats, an additional experiment was done to determine if intermittent treatment of rats with AICAR would influence the extent of the increase in citrate synthase. This experiment was also of shorter duration to minimize down regulation that appeared to occur with prolonged treatment. Rats were injected for three days (1 mg/g) followed by two days of no treatment. They were then injected for five days, followed by another two days with no treatment and then for three additional days before killing 20-24 hours following the last injection. Rats were anesthetized and tissues were collected and frozen as before. Analytical methods. Muscles from rats killed 1 h after injection of AICAR or saline were analyzed for AMPK, acetyl-CoA carboxylase (ACC) at 0.2 mM citrate, ATP and CP and ZMP. Li, B., et al. J. Biol. Chem. 274:17534-17540, 1999; Winder, W. W., & D. G. Hardie Am. J. Physiol. 270:E299-E304, 1996; Heinz, F., & H. Weisser. Creatine phosphate. In: Methods of Enzymatic Analysis, edited by H. U. Bergmeyer. New York: Academic, 1983, p. 507-514.

[2] = tested on: acetyl-CoA carboxylase (ACC); test: ACC activity and citrate dependence in denervated and contralateral muscles after acute AICAR injection; type: in vivo, rat; conditions: for ACC activity vs saline, several citrate concentrations / ACC activity at 0.2 mM citrate vs saline-treated contralateral innervated soleus: acute AICAR 1 mg/g; for ACC activity vs saline, several citrate concentrations: FIG. 10; for ACC activity at 0.2 mM citrate vs saline-treated contralateral innervated soleus: FIG. 9
Source text: Rats were anesthetized with ether and the sciatic nerve of the right hindlimb was severed. The left hindlimb was sham operated to serve as a control. Both skin wounds were closed with a metal clips. The rats used for the acute study were also implanted with a jugular catheter which was exteriorized on the back of the neck at the time of denervation for rapid administration of anesthesia.
Rats were denervated between 8:30 a.m. and 10:30 a.m. and were then given 25 g of food. Rats were handled twice during the day to accustom them to being handled. The rats were given a single subcutaneous injection 24 hours. after surgery of either AICAR (1 mg/g body weight) in sterile 0.9% NaCl or with just 0.9% NaCl, and were subsequently anesthetized intravenously. Soleus and gastrocnemius muscles from both sham and denervated sides were extracted and quick frozen in liquid nitrogen for analysis. AMPK activity and acetyl-Co A carboxylase (ACC) activity were determined as previously described. Winder W W & Hardie D G, Am J. Physiol 270 (Endocrinol Metab 33): E299-E304, 1996. Because this analysis is done on homogenates prepared by ammonium sulfate precipitation, only those effects on AMPK activity modified by phosphorylation are measured. […] Because ACC is a target for phosphorylation by AMPK, and because ACC activity has been reported to decrease in response to phosphorylation by AMPK, ACC activity is measured to give an indication of the in vivo actions of AMPK.
Referring to FIG. 10, Citrate dependence of acetyl-CoA carboxylase (ACC) in denervated and contralateral innervated gastrocnemius muscles from rats treated with AICAR (1 mg AICAR in 0.9% NaCl/1 g body weight) or saline (0.9% NaCl) is illustrated. SE values were determined but are not shown (n=5).Curves were fitted to data by using the Hill equation and Grafit software (Sigma Chemical, St. Louis, Mo.). FIG. 10 graphs the specific activity of ACC in saline-treated and AICAR-treated gastrocnemius muscles at several different citrate concentrations.

SMILES: NC(=O)c1ncn([C@@H]2O[C@H](CO)[C@@H](O)[C@H]2O)c1N [AICAR, 5-aminoimidazole-4-carboxamide-1-β-D-ribofuranoside]
- time course of ZMP in muscle after subcutaneous injection of AICAR ([1]; increased 15 minutes following injection): remains elevated for at least two hours
- ZMP concentration ([1]; red quadriceps): 0.94 ± 0.08 µmol/g
- ZMP concentration ([1]; soleus muscle): 1.15 ± 0.07 µmol/g
- ZMP concentration ([1]; white quadriceps): 0.42 ± 0.04 µmol/g
- ACC activity vs saline, several citrate concentrations ([2]; contralateral innervated gastrocnemius): significantly decrease ACC activity
- ACC activity at 0.2 mM citrate vs saline-treated contralateral innervated soleus ([2]; contralateral soleus): significantly (P<0.01) decreased
- ACC citrate activation constant (Ka) ([2]; denervated gastrocnemius, acute AICAR 1 mg/g s.c., saline-treated denervated 3.6±0.3): 13.2±1.1
- ACC maximal velocity (Vmax) as a function of citrate concentration ([2]; denervated gastrocnemius, acute AICAR 1 mg/g s.c., saline-treated denervated 36.7±5): 24.7±1.9
- ACC activity vs saline, several citrate concentrations ([2]; denervated gastrocnemius): significantly decrease ACC activity
- ACC activity at 0.2 mM citrate vs saline-treated contralateral innervated soleus ([2]; denervated soleus): significantly (P<0.01) decreased

From US20030212034A1, “Method of treatment of obesity and paralyzed muscle and ergogenic aids” (priority 2002, published 2003)
